Measurements taken from patent US20260124309A1, “STAT6 DEGRADERS AND USES THEREOF” (Kymera Therapeutics, Inc., priority 2023, published 2026).

How the values were obtained:
[1] = target: T1, biotinylated truncated STAT6 (123-632)-avi (Homo sapiens, UniProt P42226); assay: STAT6 HTRF binding assay; details: HTRF binding, 0.15 nM biotinylated truncated STAT6 (123-632)-avi, 20 nM fluorescein-labeled probe
T1 construct: biotinylated truncated STAT6 (123-632)-avi purified from E. coli; made in house; host or cells: E. coli
T1 sequence (P42226 123-632 limits assumed): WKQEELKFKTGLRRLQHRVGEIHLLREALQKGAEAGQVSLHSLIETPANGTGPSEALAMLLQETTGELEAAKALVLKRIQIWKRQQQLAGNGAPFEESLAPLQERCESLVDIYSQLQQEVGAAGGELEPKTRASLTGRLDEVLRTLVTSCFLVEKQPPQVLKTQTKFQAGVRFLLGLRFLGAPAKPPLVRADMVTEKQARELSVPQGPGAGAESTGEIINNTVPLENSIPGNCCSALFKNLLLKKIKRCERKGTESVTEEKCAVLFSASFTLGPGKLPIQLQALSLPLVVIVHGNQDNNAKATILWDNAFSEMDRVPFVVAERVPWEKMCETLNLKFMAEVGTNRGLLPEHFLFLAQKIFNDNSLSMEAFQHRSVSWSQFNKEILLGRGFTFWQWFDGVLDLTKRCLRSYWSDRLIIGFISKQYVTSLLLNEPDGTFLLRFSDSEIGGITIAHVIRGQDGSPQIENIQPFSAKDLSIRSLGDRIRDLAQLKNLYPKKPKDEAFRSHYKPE
Method: HTRF binding assays were performed using 0.15 nM biotinylated truncated STAT6 (123-632)-avi purified from E. coli, 1× Streptavidin-terbium (CisBio) prepared by mixing SA-Tb in PPI detection buffer (CisBio), 20 nM proprietary fluorescein-labeled probe, and test compounds in assay buffer consisting of 50 mM HEPES-Na pH 7.5, 100 mM NaCl, 1 mM EDTA, 2 mM DTT, 0.1% Tween-20 with a final volume of 20 uL. Compound stocks were dissolved at 10 mM in 100% DMSO and 11 point titration with 3 fold serial dilution was performed in white, opaque 384 well microplates. Reaction plates were incubated at room temperature for 30 minutes. Plates were centrifuged at low rpm for 5 mins, and the ratio of fluorescence intensities were measured at emission wavelengths for fluorescein acceptor (520 nm) and terbium donor (495 nm) on Envision Plate reader. % Inhibition was calculated from the 520/495 ratio generated by using proprietary positive control compound for 100% inhibition and DMSO only reactions for 0% inhibition. Data was processed and dose response curves were generated using GraphPad Prism to determine the concentration required for inhibiting 50% of the HTRF signal (IC50).
The letter codes for IC50 (μM) include: A (<0.1 μM); B (0.1-1 μM); C (>1-10 μM); D (>10-100 μM); E (>100 μM); and F (not tested).

STAT6-HiBiT = target: T2, STAT6-HiBiT (Homo sapiens, UniProt P42226); assay: STAT6 HiBiT degradation in A549 (STAT6-HiBiT) cells; format: cell-based; details: 24 h
T2 construct: Degradation of STAT6 in endogenously tagged STAT6-HiBiT A549 cells; endogenous in cells; host or cells: A549 (STAT6-HiBiT) knock-in cells
T2 sequence (P42226 1-847): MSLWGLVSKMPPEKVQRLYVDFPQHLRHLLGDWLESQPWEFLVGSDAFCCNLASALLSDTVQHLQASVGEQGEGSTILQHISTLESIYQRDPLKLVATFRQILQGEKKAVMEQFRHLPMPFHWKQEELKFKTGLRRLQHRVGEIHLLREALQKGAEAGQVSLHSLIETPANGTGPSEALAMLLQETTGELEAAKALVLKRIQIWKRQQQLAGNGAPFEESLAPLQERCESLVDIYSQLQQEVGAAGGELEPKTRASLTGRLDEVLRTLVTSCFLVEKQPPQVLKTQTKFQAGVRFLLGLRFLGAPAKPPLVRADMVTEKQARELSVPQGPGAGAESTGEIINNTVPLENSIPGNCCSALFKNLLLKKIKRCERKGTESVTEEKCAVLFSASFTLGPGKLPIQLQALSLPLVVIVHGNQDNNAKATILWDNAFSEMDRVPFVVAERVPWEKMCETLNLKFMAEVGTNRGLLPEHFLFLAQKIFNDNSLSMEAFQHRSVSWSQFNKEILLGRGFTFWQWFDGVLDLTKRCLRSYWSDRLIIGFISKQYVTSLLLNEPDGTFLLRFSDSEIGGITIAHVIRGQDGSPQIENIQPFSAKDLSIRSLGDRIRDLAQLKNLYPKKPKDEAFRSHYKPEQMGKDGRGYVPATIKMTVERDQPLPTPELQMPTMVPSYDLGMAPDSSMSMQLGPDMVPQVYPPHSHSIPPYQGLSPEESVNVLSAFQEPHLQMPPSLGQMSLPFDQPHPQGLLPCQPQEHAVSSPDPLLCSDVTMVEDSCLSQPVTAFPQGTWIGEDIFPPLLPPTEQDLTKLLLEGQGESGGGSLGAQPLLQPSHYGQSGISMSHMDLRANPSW
Method: Degradation of STAT6 in endogenously tagged STAT6-HiBiT A549 cells was quantitatively measured using the Nano-Glo HiBiT Lytic Detection System (Promega, 3040). A549 (STAT6-HiBiT) cells were seeded in 384-well plates with a density of 1.25k cells per well in 20 μl fresh media. Compounds were then added to the assay plates using the Apricot S3 with a final top concentration of up to 10 uM in a 4-fold dilution series with total of 10 doses. The assay plates were then incubated for 24 hours at 37° C. under 5% CO2. At the assay endpoint, 20 μL of Nano-Glo HiBiT Lytic Reagent was added to each well and agitated on a plate shaker at 300 rpm for 10 minutes at room temperature. Luminescence was read on PHERAStar FSX Instrument (Is integration time). The data was analyzed by GraphPad Prism and the dose dependent STAT6 degradation was fit using the four-parameter inhibitor vs. response nonlinear regression.
The letter codes for DC50 (nM) include: A (<1 nM): B (1-10 nM); C (>10-100 nM); D (>100-1000 nM); E (>1000 nM); and F (not tested). The letter codes for Dmax (%) include: A (>90%); B (>70-90%); C (>50-70%); D (<50%); and E (not tested).

STAT6 = target: T3, STAT6 (Homo sapiens, UniProt P42226); assay: STAT6 MSD degradation in A549 cells; format: cell-based; details: 24 h
T3 construct: endogenous in cells; host or cells: A549
T3 sequence (P42226 1-847): T2 sequence (P42226 1-847)
Method: Degradation of STAT6 in cells was quantitatively measured using Meso Scale Discovery (MSD) technology. A549 cells were seeded in 96-well plates with a density of 1.5×10e4 to 5×10e5 cells per well in 100 μl fresh media. Compounds were then added to the assay plates with a final top concentration of up to 10 uM in a 1:3 dilution series with total of 9 doses. The assay plates were then incubated for 4 to 24 hours at 37° C. under 5% CO2. The assay plates were then centrifuged for 5 minutes and the cell pellets were treated with 100 μl/well RIPA lysis buffer (Boston Bioproducts, BP-115D) with protease and phosphatase inhibitors (Roche, 05892791001 and 04906837001). To prepare the MSD assay plates (MSD, L15XA), the plates were coated with the capture antibody (Abnova, H00006778) in PBS, at 40 μl/well. The plates were then incubated overnight at 4° C., washed 1 time with 150 μl/well TBST buffer (Cell Signaling Technology, #9997S) and blocked with 150 μl/well blocking buffer (MSD, R93BA-4). Cell lysates were then added to MSD assay plates and the plates were incubated at room temperature for 1 hour. The plates were then washed 3 times with 150 μl/well TBST buffer and 25 μl/well primary detection antibody (Cell Signaling Technology, #5397S). The assay plates were then incubated at room temperature for 1 hour, washed 3 times with 150 μl/well TBST buffer, and 25 μl/well secondary detection antibody, SULFO-TAG anti-rabbit antibody (MSD, R32AB-1) were added. The assay plates were then incubated at room temperature for 1 hour, washed 3 times with 150 μl/well TBST buffer, and 150 μl/well MSD reading buffer (MSD, R92TC-2) were added. The plates were then analyzed by an MSD reader. The data was analyzed by GraphPad Prism and the dose dependent STAT6 degradation was fit using the four-parameter inhibitor vs. response nonlinear regression.
The letter codes for DC50 (nM) include: A (<1 nM); B (1-10 nM); C (>10-100 nM); D (>100-1000 nM); E (>1000 nM); and F (not tested). The letter codes for Dmax (oo) include: A (>90%); B (>70-90%); C (>50-70%); D ([…]); and F (not tested).

Row | Structure (SMILES) | IC50 [1] | DC50 (STAT6-HiBiT) | Dmax (STAT6-HiBiT) | DC50 (STAT6) | Dmax (STAT6)
1 | Cc1nn([C@H]2CCC(=O)NC2=O)c2cccc(CCN3CCN(c4cc(Cl)c(-c5cc(C6=CCCN(C(=O)CCn7cccn7)C6)c(F)c6[nH]c(C(=O)N(C)C)cc56)cc4F)CC3)c12 (single isomer, unassigned) [Example I-1078] | < 0.1 µM | < 1 nM | > 90% | – | –
2 | Cc1nn(C2CCC(=O)NC2=O)c2cccc(CCN3CCN(c4cc(Cl)c(-c5cc(C6=CCCN(C(=O)CCn7cccn7)C6)c(F)c6[nH]c(C(=O)N(C)C)cc56)cc4F)CC3)c12 (single isomer, unassigned) [Example I-1079] | < 0.1 µM | < 1 nM | > 90% | – | –
3 | CN(C)C(=O)c1cc2c(-c3ccc(C4CCN(c5ccc([C@@H]6CCC(=O)NC6=O)cc5F)CC4)cc3)cc(C3=CCCN(C(=O)CCn4ccnn4)C3)c(F)c2[nH]1 (single isomer, unassigned) [Example I-1438] | < 0.1 µM | < 1 nM | > 90% | – | –
4 | CN(C)C(=O)c1cc2c(-c3ccc(C4CCN(c5ccc(C6CCC(=O)NC6=O)cc5F)CC4)cc3)cc(C3=CCCN(C(=O)CCn4ccnn4)C3)c(F)c2[nH]1 (single isomer, unassigned) [Example I-1439] | < 0.1 µM | < 1 nM | > 90% | – | –
5 | CN(C)C(=O)c1cc2c(F)c(C3=CCCN(C(=O)CCn4cccn4)C3)cc(-c3ccc(C4CN(C(=O)c5ccc(Cl)c(C6CCC(=O)NC6=O)c5)C4)cc3)c2o1 (stereo not drawn) [Example I-495, 5-(1-(3-(1H-pyrazol-1-yl)propanoyl)-1,2,5,6-tetrahydropyridin-3-yl)-7-(4-(1-(4-chloro-3-(2,6-dioxopiperidin-3-yl)benzoyl)azetidin-3-yl)phenyl)-4-fluoro-N,N-dimethylbenzofuran-2-carboxamide] | < 0.1 µM | – | – | 10 to 100 nM | 50 to 70%
6 | Cc1cc(C2CCN(c3cccc4c3n(C)c(=O)n4C3CCC(=O)NC3=O)CC2)ccc1-c1cc(C2=CCCN(C(=O)C(C)C)C2)c(F)c2[nH]c(C(=O)N(C)C)cc12 (stereo not drawn) [Example I-566] | 1 to 10 µM | – | – | < 1 nM | > 90%
7 | CN(C)C(=O)c1cc2c(-c3ccc(C4CCN(c5ccc(C6CCC(=O)NC6=O)cc5F)CC4)cc3)cc(C3=CCCN(C(=O)CCn4cccn4)C3)c(F)c2[nH]1 (stereo not drawn) [Example I-628, 6-(1-(3-(1H-pyrazol-1-yl)propanoyl)-1,2,5,6-tetrahydropyridin-3-yl)-4-(4-(I-(4-(2,6-dioxopiperidin-3-yl)-2-fluorophenyl)piperidin-4-yl)phenyl)-7-fluoro-N,N-dimethyl-1H-indole-2-carboxamide] | < 0.1 µM | – | > 90% | < 1 nM | > 90%
8 | COc1cc(N2CCN(c3ccc(-c4cc(C5=CCCN(C(=O)CCn6cccn6)C5)c(F)c5[nH]c(C(=O)N(C)C)cc45)c(F)c3F)CC2)c(F)cc1NC1CCC(=O)NC1=O (stereo not drawn) [Example I-677, 6-(1-(3-(1H-pyrazol-1-yl)propanoyl)-1,2,5,6-tetrahydropyridin-3-yl)-4-(4-(4-(4-((2,6-dioxopiperidin-3-yl)amino)-2-fluoro-5-methoxyphenyl)piperazin-1-yl)-2,3-difluorophenyl)-7-fluoro-N,N-dimethyl-1H-indole-2-carboxamide] | < 0.1 µM | < 1 nM | > 90% | < 1 nM | > 90%
9 | COc1cc(N2CCN(CCCCCCCCN(C(=O)[C@H]3CCCN(c4cncc5ccccc45)C3)c3ccc(=O)n(CC(=O)O)c3)CC2)ccc1-c1cc(C2=CCCN(C(=O)CCn3ccnn3)C2)c(F)c2[nH]c(C(=O)N(C)C)cc12 [Example I-1076, (S)-2-(5-(N-(8-(4-(4-(6-(l-(3-(1H-1,2,3-triazol-1-yl)propanoyl)-1,2,5,6-tetrahydropyridin-3-yl)-2-(dimethylcarbamoyl)-7-fluoro-LH-indol-4-yl)-3-methoxyphenyl)piperazin-1-yl)octyl)-1-(isoquinolin-4-yl)piperidine-3-carboxamido)-2-oxopyridin-1 (2H)-yl)acetic acid] | < 0.1 µM | – | – | 10 to 100 nM | 50 to 70%
